From patent US10322191B2, “Targeted conjugates and particles and formulations thereof” (TARVEDA THERAPEUTICS, INC., priority 2014, dated 2019)
Read-outs that look alike come from different tables or passages of the source.

Experiments:
[1] = target: T1, SSTR2 (Homo sapiens, UniProt P30874); experiment: Radioligand-receptor binding assay, [125I] labeled somatostatin, membranes from SSTR2 expressing CHO-K1 cells; parameters: host or cells: CHO-K1
Experimental: Two conjugates were assessed in an in vitro assay evaluating binding to the somatostatin receptor 2 (SSTR2). A radioligand-receptor binding assay was conducted at Eurofins Panlabs (Taiwan) to determine the affinity of conjugates described herein to the SSTR2. The assay measures binding of radiolabeled ligand, [^125I] labeled somatostatin, to human SSTR2 using membrane preparations from SSTR2 expressing CHO-K1 cells. Membranes were incubated with radiolabeled somatostatin (0.03 nM) in the presence of conjugate/compound starting at a dose of 10 uM using 6× serial dilutions to obtain a 10-pt curve. After a four-hour incubation, membranes were filtered and washed 3× and counted to determine the remaining [^125I] somatostatin bound to the receptor. IC50 values were determined by a non-linear, least squares regression analysis using MathIQ™ (ID Business Solutions Ltd., UK). The Ki values were calculated using the equation of Cheng and Prusoff (Cheng and Prusoff, Biochem. Pharmacol. 22: 3099-3108, 1973) using the observed IC50 of the tested conjugate/compound, the concentration of radioligand employed in the assay, and the historical values for the KD of the ligand obtained at Eurofins.

[2] = Solubility in aqueous media containing surfactants such as Tween 80; format: physicochemical; conditions: aqueous Tween 80
[3] = target: T1, SSTR2; experiment: PathHunter eXpress Activated GPCR Internalization agonist assay; format: cell-based; parameters: expressed in transfected cells; conditions: receptor internalization, agonist dose response
Experimental: Two conjugates were assessed in an in vitro assay evaluating SSTR2. The steps outlined below provide the assay volumes and procedure for performing agonist assays using the PathHunter eXpress Activated GPCR Internalization cells and PathHunter Detection Reagents generally according to the manufacturer's recommendations. GraphPad Prism® was used to plot the agonist dose response.

[4] = system: NCI-H524 (ATCC) human lung cancer cells; format: cell-based
Procedure, shortened: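 NCI-H524 cells at 5,000/well were exposed to conjugate for 2 h from 20 μM top dose (ten-point, three-fold dilutions), washed, then grown a further 70 h. For competition, cells were pretreated 30 min with 100 μM octreotide. CellTiter Glo readout; % inhibition vs vehicle; four-parameter IC50.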

[5] = system: phospho-histone H3; experiment: Phospho-histone H3 response in NCI-H69 tumors; format: in vivo; conditions: FIG. 8
[6] = system: human NCI-H69 SCLC; experiment: Tumor growth of human NCI-H69 SCLC in mice; format: in vivo, NCR nude mice; conditions: for tumor volume: Conjugate 10 and Conjugate 10 NP6 2 mg/kg, DM1 0.8 mg/kg, once weekly for two doses, up to 100 days, FIG. 4
Experimental: Applicants assessed the activity of a conjugate and a nanoparticle formulation of the conjugate in vivo. In these experiments, the ability of compounds to affect the growth of human NCI-H69 SCLC was tested. For the in vivo study, 8 week old female NCR nude mice were inoculated subcutaneously into the right flank with 2 million cells in 1:1 RPMI 1640 (Invitrogen, Carlsbad, Calif.)/Matrigel® (BD Biosciences, San Jose, Calif.). Tumor measurements were taken twice weekly, using vernier calipers. Tumor volume was calculated using the formula: V=0.5×width×width×length.
When tumors approached a volume of 200 mm^3, mice were randomized into four groups of ten animals. Mice were treated with vehicle control (10% propylene glycol in water for injection), Conjugate 10 at 2 mg/kg (10% propylene glycol in water for injection), Conjugate 10 NP6 nanoparticle at 2 mg/kg (10% Sucrose), or DM1 at 0.8 mg/kg (10% propylene glycol in water for injection). Mice were dosed once weekly for two doses. Final tumor volumes were analyzed using with a one-way analysis of variance and Tukey multiple comparison test.
Tumor volume study was repeated with three doses for vehicle, Conjugate 10 (0.7 mg/kg each), and Conjugate 10 NP6 (0.7 mg/kg each). Tumor volumes were tracked for 30 days.

[7] = system: NCI-H69 SCLC (small cell lung cancer) tumors; experiment: H69 tumor DM-1 levels by LC/MS-MS; format: in vivo, mice; conditions: 24 hour time point; dosed at 1 mg/kg (conjugates, nanoparticles) or 0.4 mg/kg for DM-1
Experimental: To examine the ability of conjugates of the present invention to accumulate in tumors, a murine cancer model was used. All mice were treated in accordance with the OLAW Public Health Service Policy on Human Care and Use of Laboratory Animals and the ILAR Guide for the Care and Use of Laboratory Animals. All in vivo studies were conducted following the protocols approved by the Blend Therapeutics Institutional Animal Care and Use Committee. Animals were inoculated with 2.5×10{circumflex over (0)}6 NCI-H69 SCLC (small cell lung cancer) cells in 1:1 RPMI 1640 (Invitrogen, Carlsbad, Calif.)/Matrigel® (BD Biosciences, San Jose, Calif.) via subcutaneous injection to the right flank. Tumors were allowed to reach an approximate volume of ˜500 mm3. Animals were then randomized into treatment groups of 3 animals per time point and were dosed at 1 mg/kg (10% propylene glycol in water for injection for free conjugates, or 10% sucrose for nanoparticles), or 0.4 mg/kg for DM-1 (10% propylene glycol in water for injection). The 24 hour time point was used as a benchmark across conjugates.
Tumor DM-1 levels were determined by liquid chromatography mass spectrometry (LC/MS-MS). Four volumes of 5 mM 6-maleimidohexanoic acid to 1 part tumor v/w was added and homogenized for about 10-15 seconds with a handheld homogenizer. 10 μL of 500 mM Tris(2-carboxyethyl)phosphine was added to 100 uL of tumor homogenate, mixed well and incubated at room temperature for about 5-15 min. 200-300 uL of acetonitrile was used to precipitate proteins in tumor homogenate, samples were centrifuged for 5 min, and supernatant was injected onto LC/MS-MS system for DM-1 analysis.

[8] = Pharmacokinetics in rat plasma of Conjugate 10 and Conjugate 10 NP6; conditions: in vivo
Experimental: Pharmacokinetics studies in rat plasma were also carried out. AUC values were show in Table 16.

[9] = Table 6, treated 2 hours, further incubated 70 hours, read-out: H524 IC50
[10] = read-out: H524 IC50 + 100 μM octreotide, Table 6, with octreotide competition
[11] = Table 15, treated 2 hours, further incubated 70 hours, read-out: H524 IC50
[12] = read-out: H524 IC50+ 100 uM octreotide, Table 15, 100 μM octreotide for 30 min, then conjugate 2 hours, 70 hours incubation

T1 sequence (P30874 whole entry): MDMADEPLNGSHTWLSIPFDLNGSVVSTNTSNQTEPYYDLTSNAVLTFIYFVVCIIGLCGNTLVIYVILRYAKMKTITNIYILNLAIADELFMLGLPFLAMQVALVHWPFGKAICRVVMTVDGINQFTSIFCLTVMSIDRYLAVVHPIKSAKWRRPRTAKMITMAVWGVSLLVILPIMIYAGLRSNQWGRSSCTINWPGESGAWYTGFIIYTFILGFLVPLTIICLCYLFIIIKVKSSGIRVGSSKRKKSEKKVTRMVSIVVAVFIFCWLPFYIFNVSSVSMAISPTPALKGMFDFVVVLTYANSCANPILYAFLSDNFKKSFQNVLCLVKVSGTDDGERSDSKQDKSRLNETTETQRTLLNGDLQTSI

## CO[C@H]1C(=O)[C@]2(C)[C@@H](OC)C[C@H]3OC[C@@]3(OC(C)=O)[C@H]2[C@H](OC(=O)c2ccccc2)[C@]2(O)C[C@H](OC(=O)[C@H](OC(=O)OCCSSCCC(=O)N[C@H](Cc3ccccc3)C(=O)N[C@H]3CSSC[C@@H](C(=O)N[C@H](CO)[C@@H](C)O)NC(=O)[C@H]([C@@H](C)O)NC(=O)[C@H](CCCCN)NC(=O)[C@@H](Cc4c[nH]c5ccccc45)NC(=O)[C@H](Cc4ccccc4)NC3=O)[C@@H](NC(=O)OC(C)(C)C)c3ccccc3)C(C)=C1C2(C)C [Conjugate 1]
[1]; read-out: SSTR2 Ki
  Ki: 0.8 nM
[2]
  solubility in aqueous media containing surfactants such as Tween 80: high solubility
[3]
  EC50: 4.4 nM
[4]; [9]
  IC50: 110 nM
[4]; [10]
  IC50: 146 nM

## COc1cccc2c1C(=O)c1c(O)c3c(c(O)c1C2=O)C[C@@](O)(C(=O)COC(=O)CCCC(=O)N[C@H](Cc1ccccc1)C(=O)N[C@H]1CSSC[C@@H](C(=O)N[C@H](CO)[C@@H](C)O)NC(=O)[C@H]([C@@H](C)O)NC(=O)[C@H](CCCCN)NC(=O)[C@@H](Cc2c[nH]c4ccccc24)NC(=O)[C@H](Cc2ccccc2)NC1=O)C[C@@H]3O[C@H]1C[C@H](N)[C@H](O)[C@H](C)O1 [Conjugate 2]
[1]; read-out: SSTR2 Ki
  Ki: 0.24 nM
[2]
  solubility in aqueous media containing surfactants such as Tween 80: high solubility
[3]
  EC50: 35 nM
[4]; [9]
  IC50: 2850 nM
[4]; [10]
  IC50: 2940 nM

## COc1cc2cc(c1Cl)N(C)C(=O)C[C@H](OC(=O)[C@H](C)N(C)C(=O)CCSSCCC(=O)NCCCC[C@H]1C(=O)N[C@@H](Cc3ccc(O)cc3)C(=O)N[C@H](Cc3c[nH]c4ccccc34)C(=O)N[C@@H](CCCCN)C(=O)N[C@@H]([C@@H](C)O)C(=O)N[C@@H](Cc3ccccc3)C(=O)N1C)[C@]1(C)O[C@H]1[C@H](C)[C@@H]1C[C@@](O)(NC(=O)O1)[C@H](OC)/C=C/C=C(\C)C2 [Conjugate 10]
[1]
  Ki: 0.1 nM
[5]
  phospho-histone H3 response in NCI-H69 tumors after treatment: Increase
[5]; around 50 hour
  phospho-histone H3 response at around 50 hour: started to decrease
[6]
  tumor volume: initially provided tumor regression, but tumors regrew
[6]; out to 100 days, 2 mg/kg, two doses, FIG. 5
  animals removed from the study due to large tumor size (tumor size less than 2000 mm^3 curve): three
[7]
  H69 tumor DM-1 levels: 72.1 nM
[4]; [11]
  IC50: 156 nM
[4]; [12]
  IC50: 625 nM
[8]
  AUC(0-inf): 0.377 µM·h
  clearance: 13 mL/min/kg

## COc1cc2cc(c1Cl)N(C)C(=O)C[C@H](OC(=O)[C@H](C)N(C)C(=O)CCSSCCCN[C@H](Cc1ccccc1)C(=O)N[C@H]1CSSC[C@@H](C(=O)N[C@H](CO)[C@@H](C)O)NC(=O)[C@H]([C@@H](C)O)NC(=O)[C@H](CCCCN)NC(=O)[C@@H](Cc3c[nH]c4ccccc34)NC(=O)[C@H](Cc3ccccc3)NC1=O)[C@]1(C)O[C@H]1[C@H](C)[C@@H]1C[C@@](O)(NC(=O)O1)[C@H](OC)/C=C/C=C(\C)C2 [Conjugate 76]
[1]
  Ki: 0.12 nM
[7]
  H69 tumor DM-1 levels: 62.2 nM
[3]
  EC50: 3 nM
[4]; [11]
  IC50: 120 nM
[4]; [12]
  IC50: 768 nM

## COc1cc2cc(c1Cl)N(C)C(=O)C[C@H](OC(=O)[C@H](C)N(C)C(=O)CCS)[C@]1(C)O[C@H]1[C@H](C)[C@@H]1C[C@@](O)(NC(=O)O1)[C@H](OC)/C=C/C=C(\C)C2 [DM1, reference compound]
[6]
  tumor volume: tumor volume increased rapidly
